# Source: patent US20230203043A1, “NOVEL IMIDAZOPYRAZINE DERIVATIVES” (Hoffmann-La Roche Inc., priority 2020, published 2023)
# Where a name gives a salt, the structure may show the parent alone.
# Tested on: Acinetobacter baumannii ATCC17961
# Experiment: Antimicrobial susceptibility testing: 90% growth inhibitory concentration (IC90) determination in Iso-Sensitest broth, OD600 growth
# Format: cell-based
# Conditions: Acinetobacter baumannii, ATCC17961, 16 h, read-out: A. baumannii ATCC 17961 IC90 (uM), strain ATCC 17961, OD600 growth over 16 h
# Procedure, shortened: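 Growth monitored at 600 nm every 20 min for 16 h at 35±2 °C, inoculum ~5×10^(5) CFU/ml in Iso-Sensitest medium. Compounds in 10-point twofold series, e.g. 50 to 0.097 μM final; 90% inhibitory concentration taken from log-phase growth.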
row,SMILES,IC90 [µM]
1,"COCCn1cc(-c2cnc3c(Nc4ccc(C(=O)N5CCN(C(=O)N[C@H]6CCNC6)CC5)c(Cl)c4)nccn23)c(C(F)(F)F)n1 [Example 293, 4-[2-chloro-4-[[3-[1-(2-methoxyethyl)-3-(trifluoromethyl)pyrazol-4-yl]imidazo[1,2-a]pyrazin-8-yl]amino]benzoyl]-N-[(3S)-pyrrolidin-3-yl]piperazine-1-carboxamide formate]",0.429
2,"COCCn1cc(-c2cnc3c(Nc4ccc(C(=O)N5CCN(C(=O)CCN)CC5)c(Cl)c4)nccn23)c(C(F)(F)F)n1 [Example 294, 3-amino-1-[4-[2-chloro-4-[[3-[1-(2-methoxyethyl)-3-(trifluoromethyl)pyrazol-4-yl]imidazo[1,2-a]pyrazin-8-yl]amino]benzoyl]piperazin-1-yl]propan-1-one formate]",0.457
3,"N[C@@H]1CN[C@H](C(=O)N2CCN(C(=O)c3ccc(Nc4nccn5c(-c6c[nH]nc6C(F)(F)F)cnc45)cc3Cl)CC2)C1 [Example 295, [4-[(2S,4S)-4-aminopyrrolidine-2-carbonyl]piperazin-1-yl]-[2-chloro-4-[[3-[3-(trifluoromethyl)-1H-pyrazol-4-yl]imidazo[1,2-a]pyrazin-8-yl]amino]phenyl] methanone formate]",0.473
4,"COCCn1cc(-c2cnc3c(Nc4ccc(C(=O)N5CCN(C(=O)N[C@@H]6CCNC6)CC5)c(Cl)c4)nccn23)c(C(F)(F)F)n1 [Example 296, 4-[2-chloro-4-[[3-[1-(2-methoxyethyl)-3-(trifluoromethyl)pyrazol-4-yl]imidazo[1,2-a]pyrazin-8-yl]amino]benzoyl]-N-[(3R)-pyrrolidin-3-yl]piperazine-1-carboxamide formate]",0.491
5,"N#CCn1cc(-c2cnc3c(Nc4ccc(C(=O)N5CCN(C(=O)N[C@H]6CCNC6)CC5)c(Cl)c4)nccn23)c(C(F)(F)F)n1 [Example 297, 4-[2-chloro-4-[[3-[1-(cyanomethyl)-3-(trifluoromethyl)pyrazol-4-yl]imidazo[1,2-a]pyrazin-8-yl]amino]benzoyl]-N-[(3S)-pyrrolidin-3-yl]piperazine-1-carboxamide formate]",0.31
6,"CCc1cc(Nc2nccn3c(-c4cn(CCF)nc4C(F)(F)F)cnc23)ccc1C(=O)NCCOCCN [Example 301, N-[2-(2-aminoethoxy)ethyl]-2-ethyl-4-[[3-[1-(2-fluoroethyl)-3-(trifluoromethyl)pyrazol-4-yl]imidazo[1,2-a]pyrazin-8-yl]amino]benzamide formate]",0.164
7,"CCc1cc(Nc2nccn3c(-c4cn(CC(F)F)nc4C(F)(F)F)cnc23)ccc1C(=O)NCCOCCN [Example 302, N-[2-(2-aminoethoxy)ethyl]-4-[[3-[1-(2,2-difluoroethyl)-3-(trifluoromethyl)pyrazol-4-yl]imidazo[1,2-a]pyrazin-8-yl]amino]-2-ethylbenzamide formate]",0.17
8,"CCc1cc(Nc2nccn3c(-c4cn(CC5CCC5)nc4C(F)(F)F)cnc23)ccc1C(=O)NCCOCCN [Example 303, N-[2-(2-aminoethoxy)ethyl]-4-[[3-[1-(cyclobutylmethyl)-3-(trifluoromethyl)pyrazol-4-yl]imidazo[1,2-a]pyrazin-8-yl]amino]-2-ethylbenzamide formate]",0.201
9,"CCc1cc(Nc2nccn3c(-c4cn(CC5CC(F)(F)C5)nc4C(F)(F)F)cnc23)ccc1C(=O)NCCOCCN [Example 304, N-[2-(2-aminoethoxy)ethyl]-4-[[3-[1-[(3,3-difluorocyclobutyl)methyl]-3-(trifluoromethyl)pyrazol-4-yl]imidazo[1,2-a]pyrazin-8-yl]amino]-2-ethylbenzamide formate]",0.253
10,"CCc1cc(Nc2nccn3c(-c4cn(CCO)nc4C(F)(F)F)cnc23)ccc1C(=O)NCCOCCN [Example 305, N-[2-(2-aminoethoxy)ethyl]-2-ethyl-4-[[3-[1-(2-hydroxyethyl)-3-(trifluoromethyl)pyrazol-4-yl]imidazo[1,2-a]pyrazin-8-yl]amino]benzamide formate]",0.406
11,"CCc1cc(Nc2nccn3c(-c4cn(CC(C)(C)CO)nc4C(F)(F)F)cnc23)ccc1C(=O)NCCOCCN [Example 306, N-[2-(2-aminoethoxy)ethyl]-2-ethyl-4-[[3-[1-(3-hydroxy-2,2-dimethylpropyl)-3-(trifluoromethyl)pyrazol-4-yl]imidazo[1,2-a]pyrazin-8-yl]amino]benzamide formate]",0.483
12,"CCc1cc(Nc2nccn3c(-c4cn(CC5CCOC5)nc4C(F)(F)F)cnc23)ccc1C(=O)NCCOCCN (stereo not shown) [Example 307, N-[2-(2-aminoethoxy)ethyl]-2-ethyl-4-[[3-[1-(oxolan-3-ylmethyl)-3-(trifluoromethyl)pyrazol-4-yl]imidazo[1,2-a]pyrazin-8-yl]amino]benzamide formate]",0.514
13,"CCc1cc(Nc2nccn3c(-c4cn(CCN(C)C)nc4C(F)(F)F)cnc23)ccc1C(=O)NCCOCCN [Example 309, N-[2-(2-aminoethoxy)ethyl]-4-[[3-[1-[2-(dimethylamino)ethyl]-3-(trifluoromethyl)pyrazol-4-yl]imidazo[1,2-a]pyrazin-8-yl]amino]-2-ethylbenzamide formate]",0.618
14,"CCOC(=O)Cn1cc(-c2cnc3c(Nc4ccc(C(=O)NCCOCCN)c(CC)c4)nccn23)c(C(F)(F)F)n1 [Example 310, ethyl 2-[4-[8-[4-[2-(2-aminoethoxy)ethylcarbamoyl]-3-ethylanilino]imidazo [1,2-a]pyrazin-3-yl]-3-(trifluoromethyl)pyrazol-1-yl]acetate formate]",0.719
15,"CCc1cc(Nc2nccn3c(-c4cn(CCC(C)(C)O)nc4C(F)(F)F)cnc23)ccc1C(=O)NCCOCCN [Example 311, N-[2-(2-aminoethoxy)ethyl]-2-ethyl-4-[[3-[1-(3-hydroxy-3-methylbutyl)-3-(trifluoromethyl)pyrazol-4-yl]imidazo[1,2-a]pyrazin-8-yl]amino]benzamide formate]",0.769
16,"CCc1cc(Nc2nccn3c(-c4cn(CCCO)nc4C(F)(F)F)cnc23)ccc1C(=O)NCCOCCN [Example 312, N-[2-(2-aminoethoxy)ethyl]-2-ethyl-4-[[3-[1-(3-hydroxypropyl)-3-(trifluoromethyl)pyrazol-4-yl]imidazo[1,2-a]pyrazin-8-yl]amino]benzamide formate]",0.839

# Same assay, conditions: Acinetobacter baumannii, ATCC17961, 16 h, strain ATCC 17961, OD600 growth over 16 h, read-out: A. baumannii ATCC 17961 IC90
row,IC90 [µM],SMILES
1,1.32,"CCc1cc(Nc2nccn3c(-c4cn(CCNC)nc4C(F)(F)F)cnc23)ccc1C(=O)NC [Example 298, 2-ethyl-N-methyl-4-[[3-[1-[2-(methylamino)ethyl]-3-(trifluoromethyl)pyrazol-4-yl]imidazo[1,2-a]pyrazin-8-yl]amino]benzamide]"
2,0.699,"NCCC(=O)NCCNC(=O)c1ccc(Nc2nccn3c(-c4c[nH]nc4C(F)(F)F)cnc23)cc1Cl [Example 299, N-[2-(3-aminopropanoylamino)ethyl]-2-chloro-4-[[3-[3-(trifluoromethyl)-1H-pyrazol-4-yl]imidazo[1,2-a]pyrazin-8-yl]amino]benzamide]"
3,0.905,"NCCCC(=O)NCCNC(=O)c1ccc(Nc2nccn3c(-c4c[nH]nc4C(F)(F)F)cnc23)cc1Cl [Example 300, N-[2-(4-aminobutanoylamino)ethyl]-2-chloro-4-[[3-[3-(trifluoromethyl)-1H-pyrazol-4-yl]imidazo[1,2-a]pyrazin-8-yl]amino]benzamide]"
4,0.525,"O=C(N[C@@H]1CCN(C(=O)[C@@H]2C[C@@H](O)CN2)C1)c1ccc(Nc2nccn3c(-c4c[nH]nc4C(F)(F)F)cnc23)cc1Cl [Example 308, 2-chloro-N-[(3R)-1-[(2S,4R)-4-hydroxypyrrolidine-2-carbonyl]pyrrolidine-3-yl]-4-[[3-[3-(trifluoromethyl)-1H-pyrazol-4-yl]imidazo[1,2-a]pyrazin-8-yl]amino]benzamide]"
5,0.995,"O=C(N[C@H]1CCN(C(=O)[C@@H]2C[C@@H](O)CN2)C1)c1ccc(Nc2nccn3c(-c4c[nH]nc4C(F)(F)F)cnc23)cc1Cl [Example 313, 2-chloro-N-[(3S)-1-[(2S,4R)-4-hydroxypyrrolidine-2-carbonyl]pyrrolidin-3-yl]-4-[[3-[3-(trifluoromethyl)-1H-pyrazol-4-yl]imidazo[1,2-a]pyrazin-8-yl]amino]benzamide]"

# Same assay, conditions: strain ATCC 17961, OD600 growth over 16 h, read-out: A. baumannii ATCC 17961 IC90
row,SMILES,IC90 [µM]
1,"NC1CC(NC(=O)N2CCN(C(=O)c3ccc(Nc4nccn5c(-c6c[nH]nc6C(F)(F)F)cnc45)cc3Cl)CC2)C1 (stereo not shown) [Example 289, N-(3-aminocyclobutyl)-4-[2-chloro-4-[[3-[3-(trifluoromethyl)-1H-pyrazol-4-yl]imidazo[1,2-a]pyrazin-8-yl]amino]benzoyl] piperazine-1-carboxamide formate]",0.234
2,"COCCn1cc(-c2cnc3c(Nc4ccc(C(=O)N5CCN(C(=O)NCCN)CC5)c(Cl)c4)nccn23)c(C(F)(F)F)n1 [Example 290, N-(2-aminoethyl)-4-[2-chloro-4-[[3-[1-(2-methoxyethyl)-3-(trifluoromethyl)pyrazol-4-yl]imidazo[1,2-a]pyrazin-8-yl]amino]benzoyl] piperazine-1-carboxamide formate]",0.33
3,"NC1CCC(NC(=O)N2CCN(C(=O)c3ccc(Nc4nccn5c(-c6c[nH]nc6C(F)(F)F)cnc45)cc3Cl)CC2)CC1 (stereo not shown) [Example 291, N-(4-aminocyclohexyl)-4-[2-chloro-4-[[3-[3-(trifluoromethyl)-1H-pyrazol-4-yl]imidazo[1,2-a]pyrazin-8-yl]amino]benzoyl] piperazine-1-carboxamide formate]",0.332
4,"N[C@H]1CC[C@H](NC(=O)N2CCN(C(=O)c3ccc(Nc4nccn5c(-c6c[nH]nc6C(F)(F)F)cnc45)cc3Cl)CC2)C1 [Example 292, N-[(1S,3S)-3-aminocyclopentyl]-4-[2-chloro-4-[[3-[3-(trifluoromethyl)-1H-pyrazol-4-yl]imidazo[1,2-a]pyrazin-8-yl]amino]benzoyl] piperazine-1-carboxamide formate]",0.354
